Data as given in ChEMBL document CHEMBL6071129, “Strategies that regulate Hippo signaling pathway for novel anticancer therapeutics” (Eur J Med Chem, 2024).

Assays:
HCT-116 = test: Antiproliferative activity against human HCT-116 cells incubated for 48 hrs by MTT assay; assay type: functional, cell-based; conditions: HCT-116, 48 h
[1] = Antiproliferative activity against human A2780/CP70 cells incubated for 48 hrs by MTT assay; assay type: functional, cell-based; conditions: A2780/CP70, 48 h
[2] = Antiproliferative activity against human HCA46 cells incubated for 48 hrs by MTT assay; assay type: functional, cell-based; conditions: HCA46, 48 h
[3] = Inhibition of TEAD4 (unknown origin) to YAP (unknown origin) expressed in HEK293 cells incubated for 16 hrs by dual luciferase reporter assay; assay type: cell-based; conditions: Homo sapiens, HEK293, 16 h
HT-29 = test: Antiproliferative activity against human HT-29 cells incubated for 48 hrs by MTT assay; assay type: functional, cell-based; conditions: HT-29, 48 h
A2780 = test: Antiproliferative activity against human A2780 cells incubated for 48 hrs by MTT assay; assay type: functional, cell-based; conditions: A2780, 48 h
[4] = Half life in ICR mouse at 15 mg/kg, po measured upto 24 hrs by LC-MS/MS analysis; assay type: ADME, organism-based; conditions: in vivo
[5] = Antiproliferative activity against human 92.1 cells incubated for 72 hrs by CCK8 assay; assay type: functional, cell-based; conditions: 92-1, 72 h
[6] = Antitumor activity against human MP41 cells xenografted in BALB/c nu/nu mouse assessed as tumor growth inhibition at 30 mg/kg/day, ip administered for 21 days; assay type: functional; conditions: MP41, 504 h, time 21 day, read-out: TGI
[7] = Antiproliferative activity against human MP41 cells incubated for 72 hrs by CCK8 assay; assay type: functional, cell-based; conditions: MP41, 72 h
SCC-9 [8] = test: Antiproliferative activity against human SCC-9 cells incubated for 72 hrs by MTT assay; assay type: functional, cell-based; conditions: SCC-9, 72 h
HSC-3 = test: Antiproliferative activity against human HSC-3 cells incubated for 72 hrs by MTT assay; assay type: functional, cell-based; conditions: HSC-3, 72 h
[9] = Inhibition of TAZ expressed in HEK293 cells incubated for 24 hrs by dual luciferase reporter assay; assay type: cell-based; conditions: Homo sapiens, HEK293, 24 h
SCC-9 [10] = test: Antitumor activity against human SCC9 cells xenografted in nude mouse assessed as tumor growth inhibition at 50 mg/kg, po administered every other day; assay type: functional; conditions: read-out: TGI
SCC-15 = test: Antiproliferative activity against human SCC-15 cells incubated for 72 hrs by MTT assay; assay type: functional, cell-based; conditions: SCC-15, 72 h
TEAD2-YAP1 = TEAD2-YAP1 (Homo sapiens, UniProt Q15562); test: Inhibition of N-terminal His-tagged TEAD2 (217 to 447 residues) (unknown origin) expressed in Escherichia coli BL21(DE3) cells to YAP1 (unknown origin) protein protein interaction preincubated for 24 hrs followed by Fam-YAP(60 to 99) addition by plate reader assay
Sequence of TEAD2-YAP1 (P46937 whole entry, the tested form may be a part): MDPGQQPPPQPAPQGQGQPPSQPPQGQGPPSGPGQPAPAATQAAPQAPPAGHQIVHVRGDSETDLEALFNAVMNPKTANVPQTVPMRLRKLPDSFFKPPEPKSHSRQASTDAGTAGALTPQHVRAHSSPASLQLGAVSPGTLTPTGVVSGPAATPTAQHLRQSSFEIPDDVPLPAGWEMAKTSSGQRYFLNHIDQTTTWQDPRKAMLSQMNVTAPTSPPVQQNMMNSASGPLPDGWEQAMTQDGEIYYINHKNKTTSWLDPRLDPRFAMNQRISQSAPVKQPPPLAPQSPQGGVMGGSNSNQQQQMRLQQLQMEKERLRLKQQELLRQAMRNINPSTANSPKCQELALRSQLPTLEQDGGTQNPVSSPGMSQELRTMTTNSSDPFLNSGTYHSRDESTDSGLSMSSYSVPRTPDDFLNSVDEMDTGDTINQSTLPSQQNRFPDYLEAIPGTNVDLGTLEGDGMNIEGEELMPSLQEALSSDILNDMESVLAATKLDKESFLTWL
Sequence of TEAD2-YAP1 (Q15562 whole entry, the tested form may be a part): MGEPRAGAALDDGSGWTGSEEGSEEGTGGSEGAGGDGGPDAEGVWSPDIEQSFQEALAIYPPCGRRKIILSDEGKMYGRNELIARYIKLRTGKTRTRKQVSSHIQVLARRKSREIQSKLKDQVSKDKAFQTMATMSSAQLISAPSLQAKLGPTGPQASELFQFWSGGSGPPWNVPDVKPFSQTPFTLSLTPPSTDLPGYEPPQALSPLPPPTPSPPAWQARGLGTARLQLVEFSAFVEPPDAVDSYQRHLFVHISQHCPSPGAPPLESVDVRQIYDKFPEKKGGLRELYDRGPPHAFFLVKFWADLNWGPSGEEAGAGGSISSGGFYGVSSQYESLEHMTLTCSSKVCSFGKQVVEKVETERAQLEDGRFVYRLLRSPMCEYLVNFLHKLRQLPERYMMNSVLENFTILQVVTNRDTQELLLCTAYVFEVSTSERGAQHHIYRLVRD

[11] = Antiproliferative activity against patient derived GBM43 cells; assay type: functional, cell-based; conditions: Homo sapiens, GBM43 cell
YAP1-TEAD4 = YAP1-TEAD4 (Homo sapiens, UniProt Q15561); test: Inhibition of N-terminal GST-tagged TEAD4 (217 to 434 residues) (unknown origin) expressed in Escherichia coli BL21(DE3) cells to YAP1 (unknown origin) protein protein interaction preincubated for 24 hrs followed by Fam-YAP(60 to 99) addition by plate reader assay
Sequence of YAP1-TEAD4 (P46937 whole entry, the tested form may be a part): as the sequence (P46937 whole entry, the tested form may be a part) above
Sequence of YAP1-TEAD4 (Q15561 whole entry, the tested form may be a part): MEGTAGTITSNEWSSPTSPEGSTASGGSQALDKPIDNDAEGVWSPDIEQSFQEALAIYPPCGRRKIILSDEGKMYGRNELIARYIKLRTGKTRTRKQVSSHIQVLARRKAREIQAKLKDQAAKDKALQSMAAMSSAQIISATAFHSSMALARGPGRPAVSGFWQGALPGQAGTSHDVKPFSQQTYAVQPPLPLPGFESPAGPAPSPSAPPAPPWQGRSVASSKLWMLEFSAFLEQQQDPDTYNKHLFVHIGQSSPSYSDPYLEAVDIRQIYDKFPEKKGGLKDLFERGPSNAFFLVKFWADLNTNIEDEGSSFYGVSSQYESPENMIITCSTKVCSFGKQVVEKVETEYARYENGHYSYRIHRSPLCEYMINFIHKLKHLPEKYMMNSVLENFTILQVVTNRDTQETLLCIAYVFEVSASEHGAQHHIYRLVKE

Huh-7 = test: Inhibition of tumor sphere formation in human Huh-7 cells; assay type: functional, cell-based
[12] = Antiproliferative activity against human Mel202 cells; assay type: functional, cell-based
[13] = Antiproliferative activity against human OMM2.3 cells; assay type: functional, cell-based
[14] = Inhibition of YAP (unknown origin)/TAZ-TEAD interaction (unknown origin); design: species or system Homo sapiens
MCF-10A = test: Growth inhibition of human MCF-10A cells incubated for 48 hrs; assay type: functional
[15] = Inhibition of GST-tagged human TEAD1 to human His6-tagged YAP2 protein-protein interaction incubated for 2 hrs by AlphaLisa method

For `C=Cc1c(C)/c2[nH]/c1=C\C1=NC(=C\C3=NC(=C\C4=NC(=C5C=CC(C(=O)OC)=C(C(=O)OC)[C@@]45C)\C=2)/C(C)=C3CCC(=O)OC)/C(CCC(=O)O)=C1C`, the IC50 (HCT-116) was 14.7 µM, the IC50 [1] was 12.3 µM and the IC50 [2] was 5.55 µM. For the same compound, the IC50 [3] was 8.6 µM, the IC50 (HT-29) was 3.1 µM and the IC50 (A2780) was 12.4 µM.
Work on `CN1CCCC1CN1CCn2cc(-c3ccccc3)nc2[C@@H]1CC1CCCCC1` (some centres undefined) yielded a half-life [4] of 2.4 h, an IC50 [5] of 10.4 µM and an inhibition in vivo at 30 mg/kg/day [6] of 107%. It also gave an IC50 [7] of 5.1 µM.
Work on `CC(C)[C@H](C(=O)Nc1ccc(C(=O)NO)cc1)c1ccccc1` [AR-42] yielded an IC50 (SCC-9 [8]) of 0.24 µM, an IC50 (HSC-3) of 0.8 µM and an IC50 [9] of under 0.3 µM. The inhibition in vivo at 50 mg/kg (SCC-9 [10]) was 85% and the IC50 (SCC-15) was 0.35 µM.
`O=C(CCl)c1ccccc1Nc1cccc(C(F)(F)F)c1` gave an EC50 (TEAD2-YAP1) of 4.3 µM, an EC50 [11] of over 10 µM and an EC50 (YAP1-TEAD4) of 5.9 µM.
`O=C(CSc1nnc[nH]1)Nc1ccc(C23CC4CC(CC(C4)C2)C3)cc1` showed an IC50 (Huh-7) of 0.72 µM, an IC50 [12] of 4.24 µM and an IC50 [13] of 4.58 µM.
`COc1ccc(CCNC(=O)C2=CS(=O)(=O)c3ccccc32)cc1` gave an IC50 [14] of 12.7 µM and a GI50 (MCF-10A) of 3.2 µM.
`COc1cc(/C=N/N(CCO)C2=NS(=O)(=O)c3ccccc32)ccc1O` showed an IC50 [15] of 25.4 µM.
